Reference: patent publication US5362856A, “Monooxygenase-like activity of heme proteins” (University of Toronto Innovations Foundation, priority 1993, dated 1994)

B1: catalase: enzyme added to test whether peroxide is involved in the hydroxylation (protein, UniProt P00432 2-527, looked up)
Catalase: ADNRDPASDQMKHWKEQRAAQKPDVLTTGGGNPVGDKLNSLTVGPRGPLLVQDVVFTDEMAHFDRERIPERVVHAKGAGAFGYFEVTHDITRYSKAKVFEHIGKRTPIAVRFSTVAGESGSADTVRDPRGFAVKFYTEDGNWDLVGNNTPIFFIRDALLFPSFIHSQKRNPQTHLKDPDMVWDFWSLRPESLHQVSFLFSDRGIPDGHRHMNGYGSHTFKLVNANGEAVYCKFHYKTDQGIKNLSVEDAARLAHEDPDYGLRDLFNAIATGNYPSWTLYIQVMTFSEAEIFPFNPFDLTKVWPHGDYPLIPVGKLVLNRNPVNYFAEVEQLAFDPSNMPPGIEPSPDKMLQGRLFAYPDTHRHRLGPNYLQIPVNCPYRARVANYQRDGPMCMMDNQGGAPNYYPNSFSAPEHQPSALEHRTHFSGDVQRFNSANDDNVTQVRTFYLKVLNEEQRKRLCENIAGHLKDAQLFIQKKAVKNFSDVHPEYGSRIQALLDKYNEEKPKNAVHTYVQHGSHLSAREKANL
B2: myoglobin (protein, UniProt P68082 2-154, looked up)
Myoglobin: GLSDGEWQQVLNVWGKVEADIAGHGQEVLIRLFTGHPETLEKFDKFKHLKTEAEMKASEDLKKHGTVVLTALGGILKKKGHHEAELKPLAQSHATKHKIPIKYLEFISDAIIHVLHSKHPGDFGADAQGAMTKALELFRNDIAAKYKELGFQG
notes: myoglobin Mb, MW18800, from Sigma, used in place of Mt

What was measured:
hemoglobin-Fe(II) = experiment: Effect of added agents on the sulfite/heme protein catalysed hydroxylation; type: biochemical; conditions: agents in reasonable quantities
[1] = 1 uM methemoglobin, 2.0 Mm anisole, 0.6 mM sodium sulfite, pH 7.0, 37 degrees C
Protocol: The cleavage of anisole is a more demanding test of monooxygenase activity--see Galaris et. al., Arch. Biochem. Biophys., 1990, 281, 163 n., and Lindsay Smith et.al., J. Chem. Soc. Chem. Commun., 1982, 55. […] The reaction mixtures were preincubated for 5 mins at 37 degrees C. and then terminated by addition of ice-cold 20% trichloroacetic acid (for formaldehyde determination), or by addition of ice-cold diethyl ether and subsequent extraction with diethyl ether (for GC detection of the product phenol).

[2] = Aniline p-hydroxylation catalysed by myoglobin with sodium sulfite; type: biochemical; conditions: 0.1 mL of 6 mM sodium sulphite, otherwise as Example 1
Protocol: An experiment was conducted exactly as described above in connection with Example 1, but using myoglobin Mb, 28 mg, MW18800, from Sigma, in place of Mt, and an amount of 0.1 mL of 6 mM sodium sulphite. Otherwise conditions and quantities were the same.

Molecule | effect on the catalytic hydroxylation process (hemoglobin-Fe(II)) | also measured
CCO [ethanol] | not subject to inhibition | –
methemoglobin | – | production of phenol and formaldehyde from anisole [1]: 140 pmol/min; kinetics of hydroxylation with respect to aniline (constant sodium sulfite concentration, 37 degrees C, pH 7.0): follows Michaelis-Menten kinetics; kinetic mechanism on variation of sodium sulfite concentration (sodium sulfite 0.05-0.40 mM, Lineweaver-Burk plots (FIG. 2)): ping-pong mechanism
C[S+](C)[O-] [dimethylsulfoxide] | not subject to inhibition | –
OC[C@@H](O)[C@@H](O)[C@H](O)[C@H](O)CO [mannitol] | not subject to inhibition | –
[C-]#[O+] [carbon monoxide] | inhibited | –
superoxide dismutase: enzyme added to test whether superoxide is involved in the hydroxylation | no effect | –
B1 | no effect | –
B2 | – | monooxygenase activity (aniline to p-aminophenol) compared with Mt of Example 1 [2]: essentially similar result
